In US5457099A, “Carbostyril derivatives and antiallergic agent” (Sawai Pharmaceutical Co., Ltd., priority 1992, dated 1995):
Where two headings read alike, the source gives them in different places.

Tests used:
[1] = system: passive cutaneous anaphylaxis (PCA) reaction in rats; assay: Inhibition of PCA reaction in rats; assay type: in vivo, Wistar rats; details: Rattus norvegicus, po; for inhibition in vivo at 3 mg/kg / inhibition in vivo at 10 mg/kg: read-out: Inhibition of PCA in rat
Procedure: (§1) Antiserum was prepared according to the method described in J. Immunol., 106, 1002 (1971). The titer (or highest effective dilution which gave a mean 48 hours PCA response of 5 mm in diameter in a rat) of the antiserum used was 1:200.
Wistar rats were passively sensitized by intracutaneous injection of 0.05 ml antiserum diluted 75 times with physiological saline at two sheared sites of dorsal skin. After 48 hours, 0.5ml/animal of 1% Evans blue-physiological saline containing 2mg ovalbumin was administered into caudal vein to elicit the reaction. After 30 minutes, rats were sacrificed by decapitative bleeding and the dorsal skin was flayed. Dye stuff exuded at the reaction site was extracted according to the method described in Microbiol. Immunol., 22, 89 (1978). Briefly, two circular pieces of sensitized areas and one circular piece of unsensitized area (as the control) were punched at 1.8 cm diameter. The disks were placed in test tubes and treated overnight with 1 ml 1N-KOH at 37° C. Then 9ml 0.6N-H3 PO4 /acetone (5/13) was added and the mixture was thoroughly stirred and centrifuged (3000 rpm, 10 minutes). The supernatant was assayed for absorption at 620 nm. The amount of dye stuff was calculated from the standard curve previously prepared with known amounts of Evance blue. The conditions of sensitization and the amount of antigen were based on Nippon Yakurigaku Zasshi (Japanese Journal of Pharmacology),80, 261 (1982).
Test drugs and Oxatomide as a positive control were administered orally before 1 hour of elicitation through a gastric tube at 1 ml/200g body weight. In the test, groups of 6 to 7 animals and groups of 8 to 9 animals were used for test drugs and control, respectively.

[2] = system: experimental asthma in rats; assay: Inhibition of experimental asthma in rats; assay type: in vivo, Wistar rats; details: Rattus norvegicus, po; for inhibition in vivo at 1 mg/kg: other dosage/kg: 1 mg; for inhibition in vivo at 0.1 mg/kg: other dosage/kg: 0.1 mg; for inhibition in vivo at 0.3 mg/kg: other dosage/kg: 0.3 mg
Procedure: as §1
Wistar rats were passively sensitized by injection into caudal vein of 2.0ml/animal antiserum. After 24 hours, anaphylactic airway contraction caused by administration of antigen was measured by a modified Konzett and Roessler method. Briefly, the animal was fixed at dorsal position under urethane (1.5 g/kg, i.p.) anesthetization and connected with a respirator (Harvard Model 683, respiratory volume: 3-5 ml/respiration; respiratory rate: 72/minute) via an incised tracheal cannula. […] Oxatomide was administered two hours before the test, which is the optimal conditions according to Nippon Yakurigaku Zasshi (Japanese Journal of Pharmacology), 80, 261 (1982), and the other test drugs were orally administered at a rate of 0.2 ml/100 g body weight one hour before the test using a gastric tube. At the end of measurement, the trachea was blocked with a Kocher clamp and the measured values were expressed in percent taking the value at blockage as the maximum contraction (100%).

[3] = read-out: Inhibition of Experimental Asthma in rat
[4] = 10 mg/kg, read-out: Inhibition of Experimental Asthma in rat

Row | Structure (SMILES) | inhibition in vivo at 10 mg/kg ([1]; 10 mg/kg) | inhibition in vivo at 10 mg/kg [2, 4] | further results
1 | O=c1cc(CN2CCC(c3c[nH]c4ccccc34)CC2)c2ccccc2[nH]1 [III-1, 4-[[4-(1H-indol-3-yl)-l-piperidinyl]methyl]-2(1H)-quinolinone] |  |  | inhibition in vivo at 3 mg/kg [1]: 58.8%; inhibition in vivo at 10 mg/kg [1]: 73.1%; inhibition in vivo at 10 mg/kg [2, 3]: 14.6%; inhibition in vivo at 30 mg/kg [2, 3]: 14.3%
2 | O=c1cc(CCCN2CCC(c3c[nH]c4ccccc34)CC2)c2ccccc2[nH]1 [III-3, 4-[3-[4-(1H-indol-3-yl)-1-piperidinyl]propyl]-2(1H)-quinolinone] | 69.1% | 85% | inhibition in vivo at 1 mg/kg ([1]; other dosage/kg: 1 mg): 21.3%; inhibition in vivo at 3 mg/kg ([1]; other dosage/kg: 3 mg): 25.8%; inhibition in vivo at 30 mg/kg ([1]; other dosage/kg: 30 mg): 96.1%; inhibition in vivo at 1 mg/kg [2]: 25.4%; inhibition in vivo at 3 mg/kg ([2]; other dosage/kg: 3 mg): 88.7%
3 | O=c1cc(CCCCN2CCC(c3c[nH]c4ccccc34)CC2)c2ccccc2[nH]1 [III-4, 4-[4-[4-(1H-indol-3-yl)-1-piperidinyl]butyl]-2(1H)-quinolinone] | 12.8% | 28.7% | 
4 | O=c1cc(CCCCCN2CCC(c3c[nH]c4ccccc34)CC2)c2ccccc2[nH]1 [III-5, 4-[5-[4-(1H-indol-3-yl)-1-piperidinyl]pentyl]-2(1H)-quinolinone] | 66.5% | 8.87% | 
5 | O=c1cc(CN2CCN(C(c3ccccc3)c3ccccc3)CC2)c2ccccc2[nH]1 [III-6, 4-[[4-(diphenylmethyl)-1-piperazinyl]methyl]-2(1H)-quinolinone] | 9.7% | 57.2% | 
6 | O=c1cc(CCN2CCN(C(c3ccccc3)c3ccccc3)CC2)c2ccccc2[nH]1 [III-7, 4-[2-[4-(diphenylmethyl)-1-piperazinyl]ethyl]-2(1H)-quinolinone] | 57.8% | 63.6% | 
7 | O=c1cc(CCCN2CCN(C(c3ccccc3)c3ccccc3)CC2)c2ccccc2[nH]1 [III-8, 4-[3-[4-(diphenylmethyl)-1-piperazinyl]propyl]-2(1H)-quinolinone] | 73.9% | 17.1% | 
8 | O=c1cc(CCN2CCN(C(c3ccccc3)c3ccc(Cl)cc3)CC2)c2ccccc2[nH]1 (centres unmarked) [III-9] | 8.9% | 34.6% | 
9 | O=c1cc(CCN2CCC(OC(c3ccccc3)c3ccccc3)CC2)c2ccccc2[nH]1 [III-11, 4-[2-[4-(diphenylmethoxy)-1-piperidinyl]ethyl]-2(1H)-quinolinone] | 63.6% | 35.6% | 
10 | O=c1cc(CCCN2CCC(OC(c3ccccc3)c3ccccc3)CC2)c2ccccc2[nH]1 [III-12, 4-[3-[4-(diphenylmethoxy)-1-piperidinyl]propyl]-2(1H)-quinolinone] | 73.6% | 12.1% | 
11 | O=C1Cc2ccccc2C(=C2CCN(Cc3cc(=O)[nH]c4ccccc34)CC2)c2ccsc21 [III-13, 4,9-dihydro-4-[1-[(1,2-dihydro-2-oxo-4-quinolyl)methyl]-4-piperidinylidene]-10H-benzo[4, 5]cyclohepta[1,2-b]thiophen-10-one] | 24.2% | 42.9% | 
12 | O=C1Cc2ccccc2C(=C2CCN(CCc3cc(=O)[nH]c4ccccc34)CC2)c2ccsc21 [III-14, 4,9-dihydro-4-[1-[2-(1,2-dihydro-2-oxo-4-quinolyl)ethyl]-4-piperidinylidene]-10H-benzo[4, 5]cyclohepta[1,2-b]thiophen-10-one] | 23.1% | 44.8% | 
13 | O=C1Cc2ccccc2C(=C2CCN(CCCc3cc(=O)[nH]c4ccccc34)CC2)c2ccsc21 [III-15, 4,9-dihydro-4-[1-[3-(1,2-dihydro-2-oxo-4-quinolyl)propyl]-4-piperidinylidene]-10H-benzo[4, 5]cyclohepta[1,2-b]thiophen-10-one] | 49.9% | 37.5% | 
14 | Cn1c(=O)cc(CN2CCC(c3c[nH]c4ccccc34)CC2)c2ccccc21 [III-16, 4-[[4-(1H-indol-3-yl)-l-piperidinyl]methyl]-1-methyl-2(1H)-quinolinone] |  |  | inhibition in vivo at 10 mg/kg [1]: 45.6%; inhibition in vivo at 10 mg/kg [2, 3]: 2.57%
15 | Cn1c(=O)cc(CCN2CCC(c3c[nH]c4ccccc34)CC2)c2ccccc21 [III-17, 4-[2-[4-(1H-indol-3-yl)-1-piperidinyl]ethyl]-1-methyl-2(1H)-quinolinone] | 42.5% | 86.5% | inhibition in vivo at 0.1 mg/kg [2]: 96.2%; inhibition in vivo at 0.3 mg/kg [2]: 80.9%; inhibition in vivo at 1 mg/kg [2]: 88.1%
16 | O=c1cc(CCN2CCC(c3c[nH]c4ccccc34)CC2)c2ccc(Br)cc2[nH]1 [III-18, 7-bromo-4-[2-[4-(1H-indol-3-yl)-1-piperidinyl]ethyl]-2(1H)-quinolinone] | 45.2% | 84.2% | inhibition in vivo at 1 mg/kg [2]: 62.6%
17 | O=c1cc(CCN2CCC(c3c[nH]c4ccccc34)CC2)c2cc([N+](=O)[O-])ccc2[nH]1 [III-19, 4-[2-[4-(1H-indol-3-yl)-1-piperidinyl]ethyl]-6-nitro-2(1H)-quinolinone] | 20.3% | 88.5% | 
18 | Nc1ccc2[nH]c(=O)cc(CCN3CCC(c4c[nH]c5ccccc45)CC3)c2c1 [III-20, 6-amino-4-[2-[4-(1H-indol-3-yl)-1-piperidinyl]ethyl]-2(1H)-quinolinone] | 18.5% | 89.2% | 
19 | Cc1ccc2[nH]c(=O)cc(CCN3CCC(c4c[nH]c5ccccc45)CC3)c2c1 [III-23, 4-[2-[4-(1H-indol-3-yl)-1-piperidinyl]ethyl]-6-methyl-2(1H)-quinolinone] | 62% | 95.5% | inhibition in vivo at 0.1 mg/kg [2]: 48.5%; inhibition in vivo at 0.3 mg/kg [2]: 84%; inhibition in vivo at 1 mg/kg [2]: 95%
20 | Cc1cccc2c(CCN3CCC(c4c[nH]c5ccccc45)CC3)cc(=O)[nH]c12 [III-24, 4-[2-[4-(1H-indol-3-yl)-1-piperidinyl]ethyl]-8-methyl-2-(1H)-quinolinone] | 102% | 73.8% | inhibition in vivo at 1 mg/kg [2]: 95.7%
21 | Cc1ccc2c(CCN3CCC(c4c[nH]c5ccccc45)CC3)cc(=O)[nH]c2c1 [III-25, 4-[2-[4-(1H-indol-3-yl)-1-piperidinyl]ethyl]-7-methyl-2-(1H)-quinolinone] | 29.4% | 68.6% | 
22 | Cc1cc(C)c2c(CCN3CCC(c4c[nH]c5ccccc45)CC3)cc(=O)[nH]c2c1 [III-27, 5,7-dimethyl-4-[2-[4-(1H-indol-3-yl)-1-piperidinyl]ethyl]-2(1H)-quinolinone] | 70.9% | 65.8% | 
23 | O=C1CC(CCN2CCC(c3c[nH]c4ccccc34)CC2)c2ccccc2N1 (centres unmarked) [IV-1, 3,4-dihydro-4-[2-[4-(1H-indol-3-yl)-1-piperidinyl]ethyl]-2(1H)-quinolinone] | 95.9% | 80.1% | inhibition in vivo at 3 mg/kg ([1]; other dosage/kg: 3 mg): 65.9%; inhibition in vivo at 1 mg/kg [2]: 26.4%
24 | O=c1ccc2cc(Cl)ccc2n1CCCN1CCC(c2c[nH]c3ccccc23)CC1 [VII-1, 1-[3-[4-(1H-indol-3-yl)-piperidinyl]propyl]-6-chloro-2-(1H)-quinolinone] | 12.1% | 40.3% | 
25 | Cc1ccc2c(ccc(=O)n2CCCN2CCC(c3c[nH]c4ccccc34)CC2)c1 [VII-2, 1-[3-[4-(1H-indol-3-yl)-1-piperidinyl]propyl]-6-methyl-2(1H)-quinolinone] | 41.9% | 24.3% | 
26 | O=c1ccc2ccccc2n1CCCN1CCC(c2c[nH]c3ccccc23)CC1 [VII-3, 1-[3-[4-(1H-indol-3-yl)-1-piperidinyl]propyl]-2(1H)-quinolinone] | 27.2% | 76.7% | 
27 | Cc1cc(=O)n(CCCN2CCC(c3c[nH]c4ccccc34)CC2)c2ccccc12 [VII-4, 1-[3-[4-(1H-indol-3-yl)-1-piperidinyl]propyl]-4-methyl-2-(1H)-quinolinone] | 89.2% | 10.8% | 
